In patent US20240376085A1 (Janssen Pharmaceutica NV, priority 2021, published 2024):

Assays:
IL-17A : IL-17RA binding = biological target: T1, IL-17A : IL-17RA binding (Homo sapiens, UniProt Q16552, K93Q); assay: IL-17A(FLAG-tagged):IL-17RA(His-tagged) binding disruption Eu-HTRF assay, Protocol 1; conditions: FLAG-IL-17A 2.5 nM at 2x final concentration; average if tested more than once
T1 construct: Name: IL-17A-Flag
Summary of the method: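 IC50 came from a one-site competition fit of the acceptor/donor (665/620 nm) HTRF ratio. His-tagged IL-17RA, Eu-anti-FLAG and D2-anti-His were added after a 1 h rt compound preincubation with FLAG-tagged IL-17A dimer in PBS/0.01% Triton X-100, followed by 2 h at rt before reading.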

[1] = test system: IL-17A-induced G-CSF production in human normal keratinocyte (NHK); assay: NHK assay: IL-17A-induced G-CSF production in normal human keratinocytes; type: cell-based; conditions: IL-17A 5 ng/mL, 24 h, average if tested more than once
Summary of the method: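 Stimulus rhIL-17A 5 ng/mL final, premixed 1 h rt with compound; adult NHK, 5% FBS, 0.2% DMSO. Viability by CellTiter-Glo vs DMSO.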

T1 sequence (Q16552 with tags, fused parts or gaps K93Q): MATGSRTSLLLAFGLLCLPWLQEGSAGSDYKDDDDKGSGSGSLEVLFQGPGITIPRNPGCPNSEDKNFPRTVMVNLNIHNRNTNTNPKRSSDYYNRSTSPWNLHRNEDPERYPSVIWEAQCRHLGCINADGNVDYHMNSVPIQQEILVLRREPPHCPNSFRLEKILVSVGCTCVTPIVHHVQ

SMILES: CC(NC(=O)CCC(F)(F)F)c1ccc2nc([C@H](CC(C)(C)C(F)(F)F)NC(=O)c3ccnn3C(C)C)[nH]c2c1 (single isomer, unassigned) [Example 232, 1-Isopropyl-N—((S)-4,4,4-trifluoro-3,3-dimethyl-1-(6-((R*)-1-(4,4,4-trifluorobutanamido)ethyl)-1H-benzo[d]imidazol-2-yl)butyl)-1H-pyrazole-5-carboxamide]
- IC50 (IL-17A : IL-17RA binding): > 100 nM
- IC50 [1]: 50 to 100 nM

SMILES: Cc1nonc1C(=O)N[C@H](c1nc2ccc([C@H](NC(=O)CC3CC(F)(F)C3)C3CC3)cc2[nH]1)[C@H]1C[C@@H](CC(F)(F)F)C1 (single isomer, unassigned) [Example 244]
- IC50 (IL-17A : IL-17RA binding): > 100 nM
- IC50 ([1]; Homo sapiens, Keratinocyte): > 100 nM

SMILES: Cc1nonc1C(=O)N[C@H](c1nc2ccc([C@H](NC(=O)CC3CC(F)(F)C3)C3CC3)cc2[nH]1)[C@H]1C[C@H](CC(F)(F)F)C1 (single isomer, unassigned) [Example 245]
- IC50 (IL-17A : IL-17RA binding): > 100 nM
- IC50 ([1]; Homo sapiens, Keratinocyte): > 100 nM

SMILES: Cc1nonc1C(=O)N[C@H](c1nc2ccc([C@H](NC(=O)CC3CC(F)(F)C3)C3CC3)cc2[nH]1)C1CCCCO1 (single isomer, unassigned) [Example 252, N—((R)-(6-((R)-Cyclopropyl(2-(3,3-difluorocyclobutyl)acetamido)methyl)-1H-benzo[d]imidazol-2-yl)((R*)-tetrahydro-2H-pyran-2-yl)methyl)-4-methyl-1,2,5-oxadiazole-3-carboxamide]
- IC50 (IL-17A : IL-17RA binding): > 100 nM
- IC50 ([1]; Homo sapiens, Keratinocyte): > 100 nM

SMILES: CC(C)n1nccc1C(=O)N[C@H](c1nc2ccc([C@H](NC(=O)CC3CC(F)(F)C3)C3CC3)cc2[nH]1)C1CCCCO1 (single isomer, unassigned) [Example 253, N—((R)-(6-((R)-Cyclopropyl(2-(3,3-difluorocyclobutyl)acetamido)methyl)-1H-benzo[d]imidazol-2-yl)((R*)-tetrahydro-2H-pyran-2-yl)methyl)-1-isopropyl-1H-pyrazole-5-carboxamide]
- IC50 (IL-17A : IL-17RA binding): > 100 nM
- IC50 ([1]; Homo sapiens, Keratinocyte): > 100 nM

SMILES: Cc1nonc1C(=O)N[C@H](c1nc2cc([C@H](NC(=O)CC(C)C(F)(F)F)C3CC3)ccc2[nH]1)[C@@H]1CCCC(F)(F)C1 (single isomer, unassigned) [Example 258, N—((S)-(5-((R)-Cyclopropyl((R*)-4,4,4-trifluoro-3-methylbutanamido)methyl)-1H-benzo[d]imidazol-2-yl)((R)-3,3-difluorocyclohexyl)methyl)-4-methyl-1,2,5-oxadiazole-3-carboxamide]
- IC50 (IL-17A : IL-17RA binding): 50 to 100 nM
- IC50 ([1]; Homo sapiens, Keratinocyte): 50 to 100 nM

SMILES: Cc1nonc1C(=O)N[C@H](c1nc2cc([C@H](NC(=O)CC(C)C(F)(F)F)C3CC3)ccc2[nH]1)[C@@H]1CCCC(F)(F)C1 (single isomer, unassigned) [Example 259, N—((S)-(5-((R)-Cyclopropyl((S*)-4,4,4-trifluoro-3-methylbutanamido)methyl)-1H-benzo[d]imidazol-2-yl)((R)-3,3-difluorocyclohexyl)methyl)-4-methyl-1,2,5-oxadiazole-3-carboxamide]
- IC50 (IL-17A : IL-17RA binding): 50 to 100 nM
- IC50 [1]: 50 to 100 nM

SMILES: Cc1nonc1C(=O)N[C@H](c1nc2ccc([C@H](NC(=O)CC3CC(F)(F)C3)C3CC3)cc2[nH]1)C1CCC(F)(F)CO1 (single isomer, unassigned) [Example 260, N—((R)-(6-((R)-Cyclopropyl(2-(3,3-difluorocyclobutyl)acetamido)methyl)-1H-benzo[d]imidazol-2-yl)((S*)-5,5-difluorotetrahydro-2H-pyran-2-yl)methyl)-4-methyl-1,2,5-oxadiazole-3-carboxamide]
- IC50 (IL-17A : IL-17RA binding): > 100 nM
- IC50 ([1]; Homo sapiens, Keratinocyte): > 100 nM

SMILES: CC(C)n1nccc1C(=O)N[C@H](c1nc2ccc([C@H](NC(=O)CC3CC(F)(F)C3)C3CC3)cc2[nH]1)C1CCC(F)(F)CO1 (single isomer, unassigned) [Example 261, N—((R)-(6-((R)-Cyclopropyl(2-(3,3-difluorocyclobutyl)acetamido)methyl)-1H-benzo[d]imidazol-2-yl)((S*)-5,5-difluorotetrahydro-2H-pyran-2-yl)methyl)-1-isopropyl-1H-pyrazole-5-carboxamide]
- IC50 (IL-17A : IL-17RA binding): > 100 nM
- IC50 ([1]; Homo sapiens, Keratinocyte): 50 to 100 nM

SMILES: CC(C)n1nccc1C(=O)N[C@H](c1nc2ccc([C@H](NC(=O)CC3CC(F)(F)C3)C3CC3)cc2[nH]1)C1CCC(F)(F)CO1 (single isomer, unassigned) [Example 262, N—((R)-(6-((R)-Cyclopropyl(2-(3,3-difluorocyclobutyl)acetamido)methyl)-1H-benzo[d]imidazol-2-yl)((R*)-5,5-difluorotetrahydro-2H-pyran-2-yl)methyl)-1-isopropyl-1H-pyrazole-5-carboxamide]
- IC50 (IL-17A : IL-17RA binding): > 100 nM
- IC50 [1]: < 50 nM

SMILES: Cc1c(C(=O)NC(CC(C)(C)C(F)(F)F)c2nc3cc([C@@H](C)NC(=O)CCC(F)(F)F)ccc3[nH]2)cnn1CC(F)(F)F (stereo in doubt) [Example 223, 5-Methyl-N—((S*)-4,4,4-trifluoro-3,3-dimethyl-1-(5-((R)-1-(4,4,4-trifluorobutanamido)ethyl)-1H-benzo[d]imidazol-2-yl)butyl)-1-(2,2,2-trifluoroethyl)-1H-pyrazole-4-carboxamide]
- IC50 (IL-17A : IL-17RA binding): > 100 nM
- IC50 ([1]; Homo sapiens, Keratinocyte): > 100 nM

SMILES: C[C@@H](NC(=O)CCC(F)(F)F)c1ccc2[nH]c([C@@H](NC(=O)c3cnn(CCC(F)(F)F)c3)C3CCC(F)(F)CC3)nc2c1 [Example 1, N—[(S)-(4,4-Difluorocyclohexyl)-[6-[(1R)-1-(4,4,4-trifluorobutanoylamino)ethyl]-1H-benzimidazol-2-yl]methyl]-1-(3,3,3-trifluoropropyl)pyrazole-4-carboxamide]
- IC50 (IL-17A : IL-17RA binding): > 100 nM
- IC50 ([1]; Homo sapiens, Keratinocyte): > 100 nM

SMILES: C[C@@H](NC(=O)CCC(F)(F)F)c1ccc2[nH]c([C@@H](NC(=O)c3ccn(CCC(F)(F)F)n3)C3CCC(F)(F)CC3)nc2c1 [Example 2, N—[(S)-(4,4-Difluorocyclohexyl)-[6-[(1R)-1-(4,4,4-trifluorobutanoylamino)ethyl]-1H-benzimidazol-2-yl]methyl]-1-(3,3,3-trifluoropropyl)pyrazole-3-carboxamide]
- IC50 (IL-17A : IL-17RA binding): > 100 nM
- IC50 ([1]; Homo sapiens, Keratinocyte): > 100 nM

SMILES: C[C@@H](NC(=O)CCC(F)(F)F)c1ccc2[nH]c([C@@H](NC(=O)c3cnn(CCC(F)(F)F)n3)C3CCC(F)(F)CC3)nc2c1 [Example 3, N—[(S)-(4,4-Difluorocyclohexyl)-[6-[(1R)-1-(4,4,4-trifluorobutanoylamino)ethyl]-1H-benzimidazol-2-yl]methyl]-2-(3,3,3-trifluoropropyl)triazole-4-carboxamide]
- IC50 (IL-17A : IL-17RA binding): > 100 nM
- IC50 ([1]; Homo sapiens, Keratinocyte): > 100 nM

SMILES: C[C@@H](NC(=O)CCC(F)(F)F)c1ccc2[nH]c([C@@H](NC(=O)c3cnnn3CCC(F)(F)F)C3CCC(F)(F)CC3)nc2c1 [Example 4, N—[(S)-(4,4-Difluorocyclohexyl)-[6-[(1R)-1-(4,4,4-trifluorobutanoylamino)ethyl]-1H-benzimidazol-2-yl]methyl]-3-(3,3,3-trifluoropropyl)triazole-4-carboxamide]
- IC50 (IL-17A : IL-17RA binding): > 100 nM
- IC50 ([1]; Homo sapiens, Keratinocyte): 50 to 100 nM

SMILES: Cc1c(C(=O)N[C@H](c2nc3cc([C@@H](C)NC(=O)CCC(F)(F)F)ccc3[nH]2)C2CCC(F)(F)CC2)cnn1CCC(F)(F)F [Example 5, N—[(S)-(4,4-Difluorocyclohexyl)-[6-[(1R)-1-(4,4,4-trifluorobutanoylamino)ethyl]-1H-benzimidazol-2-yl]methyl]-5-methyl-1-(3,3,3-trifluoropropyl)pyrazole-4-carboxamide]
- IC50 (IL-17A : IL-17RA binding): > 100 nM
- IC50 ([1]; Homo sapiens, Keratinocyte): > 100 nM

SMILES: C[C@@H](NC(=O)CCC(F)(F)F)c1ccc2[nH]c([C@@H](NC(=O)c3cnn(C)c3CCC(F)(F)F)C3CCC(F)(F)CC3)nc2c1 [Example 6, N—[(S)-(4,4-Difluorocyclohexyl)-[6-[(1R)-1-(4,4,4-trifluorobutanoylamino)ethyl]-1H-benzimidazol-2-yl]methyl]-1-methyl-5-(3,3,3-trifluoropropyl)pyrazole-4-carboxamide]
- IC50 (IL-17A : IL-17RA binding): > 100 nM
- IC50 ([1]; Homo sapiens, Keratinocyte): > 100 nM

SMILES: CCn1ncc(C(=O)N[C@H](c2nc3cc([C@@H](C)NC(=O)CCC(F)(F)F)ccc3[nH]2)C2CCC(F)(F)CC2)n1 [Example 7, N—[(S)-(4,4-Difluorocyclohexyl)-[6-[(1R)-1-(4,4,4-trifluorobutanoylamino)ethyl]-1H-benzimidazol-2-yl]methyl]-2-ethyl-triazole-4-carboxamide]
- IC50 (IL-17A : IL-17RA binding): > 100 nM
- IC50 ([1]; Homo sapiens, Keratinocyte): > 100 nM

SMILES: C[C@@H](NC(=O)CCC(F)(F)F)c1ccc2[nH]c([C@@H](NC(=O)c3cnn(CC4CC4)n3)C3CCC(F)(F)CC3)nc2c1 [Example 8, 2-(Cyclopropylmethyl)-N—[(S)-(4,4-difluorocyclohexyl)-[6-[(1R)-1-(4,4,4-trifluorobutanoylamino)ethyl]-1H-benzimidazol-2-yl]methyl]triazole-4-carboxamide]
- IC50 (IL-17A : IL-17RA binding): > 100 nM
- IC50 ([1]; Homo sapiens, Keratinocyte): > 100 nM

SMILES: C[C@@H](NC(=O)CCC(F)(F)F)c1ccc2[nH]c([C@@H](NC(=O)c3cnnn3CC3CC3)C3CCC(F)(F)CC3)nc2c1 [Example 9, 3-(Cyclopropylmethyl)-N—[(S)-(4,4-difluorocyclohexyl)-[6-[(1R)-1-(4,4,4-trifluorobutanoylamino)ethyl]-1H-benzimidazol-2-yl]methyl]triazole-4-carboxamide]
- IC50 (IL-17A : IL-17RA binding): > 100 nM
- IC50 ([1]; Homo sapiens, Keratinocyte): > 100 nM

SMILES: C[C@@H](NC(=O)CCC(F)(F)F)c1ccc2[nH]c([C@@H](NC(=O)c3cn(CC4CC4)nn3)C3CCC(F)(F)CC3)nc2c1 [Example 10, 1-(Cyclopropylmethyl)-N—[(S)-(4,4-difluorocyclohexyl)-[6-[(1R)-1-(4,4,4-trifluorobutanoylamino)ethyl]-1H-benzimidazol-2-yl]methyl]triazole-4-carboxamide]
- IC50 (IL-17A : IL-17RA binding): > 100 nM
- IC50 ([1]; Homo sapiens, Keratinocyte): > 100 nM
